From patent US11904038B2 (INDUSTRY-ACADEMIC COOPERATION FOUNDATION, YONSEI UNIVERSITY, priority 2017, dated 2024)

Key:
VEGF [1] = experiment: human VEGF ELISA of culture solutions; assay type: cell-based; details: phellandrene 20 μM, 24 hours, vs DMSO, (A) of FIG. 3
Description: (§1) DMSO was used as a negative control group. The phellandrene-treated culture solutions were collected after 24 hours, and experiments were conducted using human VEGF ELISA Kit (Enzo Life Sciences, NY, USA), human IGF-1 ELISA kit (Enzo Life Sciences, NY, USA), and cAMP complete ELISA kit (Enzo Life Sciences, NY, USA), respectively, according to the manufacturers' protocol.

IGF-1 [2] = experiment: human IGF-1 ELISA of culture solutions; assay type: cell-based; details: phellandrene 20 μM, 24 hours, vs DMSO, (B) of FIG. 3
Description: as §1

cAMP = cAMP complete ELISA; assay type: cell-based, human; details: phellandrene 20 μM, 24 hours, vs DMSO, FIG. 4
Description: as §1

PKA Cα = experiment: Western blot analysis of PKA Cα; assay type: cell-based, human; details: phellandrene 20 μM, protein, (A) of FIG. 5
Description: (§2) Protein quantification was performed by Bradford assay.
(§3) 40 μg of the protein was electrophoresed on 10% SDS polyacrylamide gel and then transferred to nitrocellulose membranes. The protein was allowed to react with each of PKA Cα, β-catenin, β-actin, and GAPDH antibody (Cell Signaling Technology, Danvers, MA, USA). Each protein's signal was visualized with a chemiluminescent detection system (Amersham), and then the band's thickness was quantified using the Quantity One Analysis Software (Bio-Rad Laboratories).

β-catenin = experiment: Western blot analysis of β-catenin; assay type: cell-based, human; details: phellandrene 20 μM, protein, (B) of FIG. 5
Description: as §2, §3

LEF = experiment: RT-PCR mRNA expression of LEF; assay type: cell-based, human; details: phellandrene 20 μM, 24 hours, FIG. 6
Description: (§4) 24 hours after the treatment, the cells were collected and total RNA was extracted with Trizol Reagent (Gibco BRL, USA). The total RNA was quantified by absorbance measurement at 260 nm.
(§5) After isolation of RNA, cDNA was synthesized by performing reverse transcription using oligo dT primers and SuperScript reverse transcriptase (GIBCOBRL, Gaithersburg, MD, USA). PCR was performed using, as a template, cDNA obtained through reverse transcription and using, as primers, 5′ and 3′ flanking sequences of the gene's cDNA to be amplified. Here, required primers were obtained by making a request for synthesis with a company specializing in primer manufacturing (BIONEER CORPORATION, Korea) and used. To a mixture obtained by mixing of 5 μl of 10× reaction buffer [100 mM KCL, 20 mM Tris-HCl (pH 8.0), 2.5 mM MgCl2], 4 μl of 10 mM dNTP, and 1 μl each of 0.2 μM sense and antisense primers, were added 2 μl of the completed cDNA reaction mixture and 2.5 unit of Taq polymerase (Takara, Japan). Then, the volume was adjusted with 50 μl of distilled water, and PCR was performed using a PCR instrument. PCR conditions were set to 94° C. for 4 minutes, 94° C. (30 seconds), 30 cycles of [52° C. (30 seconds), 72° C. (45 seconds)], and 72° C. for 10 minutes.

Cyc-D = experiment: RT-PCR mRNA expression of Cyc-D; assay type: cell-based, human; details: phellandrene 20 μM, 24 hours, FIG. 6
Description: as §4, §5

VEGF [3] = experiment: RT-PCR mRNA expression of VEGF; assay type: cell-based, human; details: phellandrene 20 μM, 24 hours, FIG. 6
Description: as §4, §5

IGF-1 [4] = experiment: RT-PCR mRNA expression of IGF-1; assay type: cell-based, human; details: phellandrene 20 μM, 24 hours, FIG. 6
Description: as §4, §5

[5] = system: WEHI-3 murine leukemia cells; details: in vitro, Lin et al. 2015; cited from earlier work
[6] = system: neutrophil migration and mast cell stabilization; details: Siqueira et al. 2016; cited from earlier work
[7] = system: human hair dermal papilla cells; experiment: MTT assay: cell viability and proliferation in human hair dermal papilla cells; details: FIG. 2
Description: Human hair dermal papilla cells were purchased from PromoCell GmbH (Heidelberg, Germany). The human hair dermal papilla cells were cultured in an incubator at 37° C., 5% CO2 using HFDPC medium (PromoCell, Germany) with fetal bovine serum (FBS) and Dulbecco's modified Eagle's medium (DMEM; Gibco BRL, Gaithersburg, MD, USA). Due to the nature of the cells, cells at passages 2 to 5 were used for all experiments.
The human hair dermal papilla cells were dispensed into 24-well plates to 1×10^5 cells/well, and then cultured for 24 hours in an incubator at 37° C., 5% CO2 so that the cells are stabilized. Treatment with samples at respective concentrations (0, 10, 20, 50, 100, 200, 400 μg/ml) was performed and culture was performed for 24 hours. Then, treatment with 100 ul of 3-(4,5-dimethylthiazol-2-yl)-2,5-diphenyltetrazolium bromide (MTT; Sigma Aldrich, St. Louis, USA) reagent at a concentration of 200 mg/ml was performed and culture was performed again for 4 hours. After removing the medium, the precipitate (formazan) was dissolved in DMSO and the absorbance was measured at a wavelength of 540 nm. A proliferation rate thereof was evaluated based on the absorbance of a control group containing only DMSO.
The group containing only DMSO was set as a control group. […] Then, culture was performed for 24 hours, and cell viability was measured through an MTT assay.

For phellandrene, the “increase in concentration of VEGF” value (VEGF [1]) was 27%, the “increase in concentration of IGF-1” value (IGF-1 [2]) was 18% and the “increase in cAMP concentration” value (cAMP) was 30%. For the same substance, the “increase in expression of PKA Cα” value (PKA Cα) was 42%, the “increase in expression of β-catenin in the cell nucleus” value (β-catenin) was 30% and the “increase in mRNA expression of LEF” value (LEF) was 348%. For the same substance, the “increase in mRNA expression of Cyc-D” value (Cyc-D) was 250%, the “increase in mRNA expression of VEGF” value (VEGF [3]) was 247% and the “increase in mRNA expression of IGF” value (IGF-1 [4]) was 217%. The “known physiological function: apoptosis in leukemia cells” value [5] was “induce apoptosis in leukemia cells”, the “known physiological function: anti-inflammatory” value [6] was “serve as an anti-inflammatory agent” and the proliferation rate increase ([7]; phellandrene 10 μM) was 10.8%. It also gave a proliferation rate increase ([7]; phellandrene 20 μM) of 24% and a proliferation rate increase ([7]; phellandrene 50 μM) of 18%.
